In US9518015B2, “EP1 receptor ligands” (LABORATORIOS DEL DR. ESTEVE, S.A., priority 2011, dated 2016):

Legend:
human EP1 receptor [1] = target: T1, human EP1 receptor (Homo sapiens, UniProt P34995); assay: Test 2: Measurement of IP1 responses by HTRF, suspended HEK-293 cells stably expressing human EP1 receptors, PGE2 30 nM; type: cell-based; parameters: expressed in transfected cells; settings: HEK293, at 10 μM, read-out: Results of Test 2 (Functional assay), % inh
T1 sequence (P34995 1-402): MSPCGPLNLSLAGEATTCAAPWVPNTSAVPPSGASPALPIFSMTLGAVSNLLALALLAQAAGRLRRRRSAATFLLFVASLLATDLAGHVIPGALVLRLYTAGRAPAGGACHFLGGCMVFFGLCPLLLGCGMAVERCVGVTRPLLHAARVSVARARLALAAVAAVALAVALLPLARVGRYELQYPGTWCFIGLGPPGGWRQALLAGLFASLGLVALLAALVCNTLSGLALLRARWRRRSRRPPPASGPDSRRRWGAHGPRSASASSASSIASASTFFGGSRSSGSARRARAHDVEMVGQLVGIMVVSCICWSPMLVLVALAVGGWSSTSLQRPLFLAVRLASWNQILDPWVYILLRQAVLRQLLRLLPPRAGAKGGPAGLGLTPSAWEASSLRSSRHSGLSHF
Method in brief: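 Suspended cells preincubated with compound for 15 min at 37 °C, then stimulated with 30 nM PGE2 for 90 min at 37 °C. IP1 quantified by competitive HTRF (665/620 nm) after lysis. Percent inhibition scaled between PGE2 alone (0%) and PGE2 plus 1 μM reference antagonist (100%).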

human EP1 receptor [2] = target: T1, human EP1 receptor; assay: Test 1: Human EP1 receptor radioligand binding assay ([3H]-PGE2, transfected HEK-293 cell membranes); parameters: expressed in transfected cells; host or cells: HEK-293 cell membranes; settings: read-out: Results of Test 1 (Binding assay), % inh
Procedure: Test 1: Human EP1 Receptor Radioligand Binding Assay
To investigate binding properties of EP1 receptor ligands to human EP1 receptor, transfected HEK-293 cell membranes and [3H]-PGE2 (Perkin Elmer) were used. In 96-well plates the assay was carried out with a total reaction volume of 250 μl, containing 25 μl of membrane suspension (30 μg protein/well), 25 μl of [3H]-PGE2 (10 nM) in either absence or presence of 25 μl of either buffer or PGE2 (10 μM) for total and non-specific binding, respectively. Binding buffer contained 10 mM MES, 1 mM MgCl2 and 1 mM EDTA at pH 6.0. Plates were incubated at 25° C. for 60 minutes. After the incubation period, 200 μl of incubate were transferred to MultiScreen HTS, FB plates (Millipore), filtered and plates were washed 6 times with ice-cold 10 mM MES, 1 mM MgCl2 and 1 mM EDTA at pH 6.0. Filters were dried and counted in a MicroBeta scintillation counter (Perkin-Elmer) using EcoScint liquid scintillation cocktail.
Percentage inhibition was calculated relating compounds activity to the 0% inhibition of the wells incubated with 10 nM [3H]-PGE2 alone (total binding) and 100% inhibition of the wells incubated with 10 nM [3H]-PGE2 plus 10 μM PGE2 (non-specific binding).

human EP1 receptor [3] = target: T1, human EP1 receptor; assay: Test 3: Measurement of IP1 responses by HTRF, HEK-293 cells stably expressing human EP1 receptors incubated o/n, PGE2 10 nM; type: cell-based; parameters: expressed in transfected cells; settings: HEK293, read-out: Results of Test 3 (Functional assay), % inh
Procedure: Test 3: Measurement of IP1 Responses by Homogeneous Time Resolved Fluorescence
IP1 measurements on HEK-293 cells that stably expressed human EP1 receptors were performed by using a system based on Homogeneous Time Resolved Fluorescense (HTRF) (Gabriel et al., 2003). This technology allows the direct measurement of IP1 in living cells. The principle of this assay is based on competition between IP1 produced by cells and IP1-d2 conjugate for the binding with monoclonal anti-IP1-cryptate conjugate. The HTRF IP1 kit from CisBio was used according to the manufacturer's directions. The experimental procedure was performed as stated below.
40,000 cells per well were added to 96-well culture plates in 40 μl of Optimem and incubated o/n at 37° C. Optimem was replaced by 40 μl of stimulation buffer (supplied by the kit) and compounds were then added in 20 μl of stimulation buffer and incubated at 37° C. for 15 minutes followed by 10 μl of PGE2 to a final concentration of 10 nM. After 90 minutes at 37° C., the reaction was stopped lysing the cells with a mixture of 15 μl of cryptate and 15 μl of IP1-d2 prepared in the lysis buffer supplied by the manufacturer. Plates were incubated for an additional hour at room temperature and read at 665 nm/620 nm using an UltraEvolution Plate reader (Tecan).
Antagonist percentage inhibition was calculated relating compounds activity to the 0% inhibition of the wells incubated with 10 nM PGE2 alone and 100% inhibition of the wells incubated with 10 nM PGE2 plus 10 μM of the reference antagonist.

| inhibition at 10 µM (human EP1 receptor [1]) | inhibition at 10 µM (human EP1 receptor [2]) | inhibition at 10 µM (human EP1 receptor [3]) | Compound |
| --- | --- | --- | --- |
| > 75% | > 75% |  | O=C(O)c1cccc2c1ccn2Cc1cc(Br)ccc1OCc1ccc(Br)cc1F [Example 55, 1-(5-bromo-2-((4-bromo-2-fluorobenzyl)oxy)benzyl)-1H-indole-4-carboxylic acid] |
| > 75% | 45 to 75% |  | O=C(O)c1ccc2c(ccn2Cc2cc(F)ccc2OCc2ccc(F)c(Br)c2)c1 [Example 68, 1-(2-((3-bromo-4-fluorobenzyl)oxy)-5-fluorobenzyl)-1H-indole-5-carboxylic acid] |
| > 75% | 45 to 75% |  | O=C(O)c1ccc2c(ccn2Cc2cc(Br)ccc2OCc2ccc(F)cc2C(F)(F)F)c1 [Example 69] |
| > 75% | 45 to 75% |  | O=C(O)c1ccc2c(ccn2Cc2cc(C(F)(F)F)ccc2OCc2ccc(Br)cc2F)c1 [Example 75, 1-(2-((4-bromo-2-fluorobenzyl)oxy)-5-(trifluoromethyl)benzyl)-1H-indole-5-carboxylic acid] |
| > 75% | > 75% |  | O=C(O)c1ncnc2c1ccn2Cc1cc(Cl)ccc1OCc1ccc(F)cc1F [Example 99] |
|  | > 75% | > 75% | O=C(O)c1cccc2c1OCC(=O)N2Cc1cc(Br)ccc1OCc1ccc(Cl)cc1F [Example 115] |
|  | > 75% | > 75% | O=C(O)c1cccc2c1OCCN2Cc1cc(Cl)ccc1OCc1ccc(Cl)cc1F [Example 117] |
|  | > 75% | > 75% | O=C(O)c1cccc2c1OCCN2Cc1ccccc1OCc1ccc(Cl)cc1F [Example 119] |
|  | > 75% | > 75% | O=C(O)c1cccc2c1OCCN2Cc1cc(F)ccc1OCc1ccc(F)cc1Cl [Example 121] |
|  | > 75% | > 75% | O=C(O)c1cccc2c1OCCN2Cc1ccccc1OCc1ccc(F)cc1F [Example 122] |
|  | > 75% | > 75% | O=C(O)c1cccc2c1cnn2Cc1cc(Cl)ccc1OCc1ccc(Cl)cc1F [Example 124] |
|  | > 75% | > 75% | CC(C)(F)COc1ccc(Cl)cc1Cn1ncc2c(C(=O)O)cccc21 [Example 125] |
|  | > 75% | > 75% | O=C(O)c1cccc2c1cnn2Cc1cc(Br)ccc1OCc1ccc(Cl)cc1F [Example 136] |
|  | > 75% | > 75% | O=C(O)c1cccc2c1cnn2Cc1cc(Cl)ccc1OC1CCC1 [Example 137] |
|  | > 75% | > 75% | CC(C)(C)COc1ccc(Cl)cc1Cn1ncc2c(C(=O)O)cccc21 [Example 138] |
|  | > 75% | > 75% | O=C(O)c1cccc2c1c(CO)cn2Cc1cc(Cl)ccc1OCc1ccc(Cl)cc1F [Example 141, sodium 1-(5-chloro-2-((4-chloro-2-fluorobenzyl)oxy)benzyl)-3-(hydroxymethyl)-1H-indole-4-carboxylate] |
|  | > 75% | > 75% | O=C(O)c1cccc2c1c(CO)cn2Cc1cc(Cl)ccc1OCc1ccc(F)cc1F [Example 142] |
|  | > 75% | > 75% | O=C(O)c1cccc2c1c(CO)cn2Cc1ccccc1OCc1ccc(Cl)cc1F [Example 144] |
|  | > 75% | > 75% | O=C(O)c1cccc2c1c(CO)cn2Cc1cc(F)ccc1OCc1ccc(F)cc1F [Example 145] |
|  | > 75% | > 75% | O=C(O)c1cccc2c1c(CO)cn2Cc1cc(F)ccc1OCc1ccc(Cl)cc1F [Example 146] |

| inhibition at 10 µM (human EP1 receptor [1]) | inhibition at 10 µM (human EP1 receptor [2]) | inhibition at 10 µM (human EP1 receptor [3]) | Compound |
| --- | --- | --- | --- |
|  | > 75% | > 75% | CC(C)(F)COc1ccc(Cl)cc1Cn1cc(CO)c2c(C(=O)O)cccc21 [Example 147] |
|  | > 75% | > 75% | O=C(O)c1cccc2c1c(CO)cn2Cc1cc(F)ccc1OC1CCC1 [Example 148] |
|  | > 75% | > 75% | O=C(O)c1cccc2c1c(CO)cn2Cc1cc(F)ccc1OCc1ccc(F)cc1 [Example 149] |
|  | > 75% | > 75% | CC(CF)COc1ccc(Cl)cc1Cn1cc(CO)c2c(C(=O)O)cccc21 (centres unmarked) [Example 151] |
|  | > 75% | > 75% | O=C(O)c1ccnc2c1c(CO)cn2Cc1cc(Cl)ccc1OCc1ccc(F)cc1F [Example 152] |
|  | > 75% | > 75% | CC(C)COc1ccc(Cl)cc1Cn1cc(CCO)c2c(C(=O)O)cccc21 [Example 157] |
|  | > 75% | > 75% | CC(C)(F)COc1ccc(Cl)cc1CN1CCc2c(C(=O)O)cccc21 [Example 166] |
|  | > 75% | > 75% | CC(C)COc1ccc(Cl)cc1CN1CCc2c(C(=O)O)cccc21 [Example 169] |
|  | > 75% | > 75% | CC(C)COc1ccc(F)cc1CN1CCc2c(C(=O)O)cccc21 [Example 170] |
|  | > 75% | > 75% | CC(C)COc1ccc(Cl)cc1CN1CCCc2c(C(=O)O)cccc21 [Example 175] |
|  | > 75% | > 75% | CC(C)(F)COc1ccc(Cl)cc1CN1CCCc2c(C(=O)O)cccc21 [Example 177] |
|  | > 75% | > 75% | O=C(O)c1cccc2c1CCCN2Cc1cc(Cl)ccc1OC1CCC1 [Example 178] |
|  | > 75% | > 75% | C=C(CF)COc1ccc(Cl)cc1CN1CCCc2c(C(=O)O)cccc21 [Example 182] |
|  | > 75% | > 75% | O=C(O)c1cccc2c1c(CO)nn2Cc1cc(Cl)ccc1OCc1ccc(Cl)cc1F [Example 188, sodium 1-(5-chloro-2-((4-chloro-2-fluorobenzyl)oxy)benzyl)-3-(hydroxymethyl)-1H-indazole-4-carboxylate] |
|  | > 75% | > 75% | Cc1ccc(OCc2ccc(Cl)cc2F)c(CN2CCOc3c(C(=O)O)cccc32)c1 [Example 194] |
|  | > 75% | > 75% | CC(C)COc1ccc(F)cc1CN1CCOc2c(C(=O)O)cccc21 [Example 195] |
|  | > 75% | > 75% | CC(C)COc1ccc(Cl)cc1CN1CCOc2c(C(=O)O)cccc21 [Example 196] |
|  | > 75% | > 75% | O=C(O)c1cccc2c1OCCN2Cc1cc(Cl)ccc1OC1CCC1 [Example 197] |
|  | > 75% | > 75% | COCc1cn(Cc2cc(Cl)ccc2OCc2ccc(Cl)cc2F)c2cccc(C(=O)O)c12 [Example 207, Sodium 1-(5-chloro-2-(4-chloro-2-fluorobenzyloxy)benzyl)-3-(methoxymethyl)-1H-indole-4-carboxylate] |
|  | > 75% | > 75% | O=C(O)c1cccc2c1CC(=O)N2Cc1cc(Cl)ccc1OCc1ccc(Cl)cc1F [Example 208, sodium 1-(5-chloro-2-(4-chloro-2-fluorobenzyloxy)benzyl)-2-oxoindoline-4-carboxylate] |
